Source: patent EP0670826B1, “FATTY ACID DERIVATIVES AND PHARMACEUTICAL COMPOSITIONS CONTAINING THEM” (YISSUM RESEARCH DEVELOPMENT COMPANY OF THE HEBREW …, priority 1992, dated 1994)

Experiments:
[1] = tested on: intraocular pressure (I.O.P.); test: antiglaucoma activity in stable glaucoma induced by chymotrypsin injection into the eye; assay type: in vivo; settings: 0.01% aq. solution, rabbits
Protocol: The compounds were also tested for antiglaucoma activity in rabbits with stable glaucoma induced by δ-chymotrypsin injection into the eye as described in detail in R. Mechoulam et al., On the therapeutic possiblities of some cannabinoids in "The Therapeutic Potential of Marihuana" (eds S. Cohen. R.C. Stillman) Plenum Press, New York, 1975. pp. 35-48). The compounds were compared in activity to that of pilocarpine (a standard antiglaucoma drug) which at 0.01% aq. solution reduces the intraocular pressure (I.O.P.) and delays recovery to half time of the original I.O.P. about 30 hours. […] The compounds were dissolved as described for analgesia and further diluted with saline to obtain the required concentration.

[2] = molecular target: T1, cannabinoid receptor (Rattus norvegicus, UniProt P20272); test: centrifugation radioligand binding assay with [3H]HU-243 on synaptosomal membranes
T1 construct: Synaptosomal membranes were prepared from rat whole brain-minus brainstem; from tissue; host or cells: rat whole brain minus brainstem, synaptosomal membranes (Sprague-Dawley males)
Protocol: To screen for endogenous cannabinoid compounds there were tested brain-derived fractions using a centrifugation radioligand binding assay. […] Particular attention was paid to the binding of [^3H]HU-243 to the siliconized polypropylene microfuge tubes in which the assay was conducted. Normally, about 15-20% of the added [^3H]HU-243 adheres to the microfuge tube, with the amount increasing slightly when unlabelled cannabinoid drugs displace the radioligand from the receptor.
Synaptosomal membranes were prepared from rat whole brain-minus brainstem (Sprague-Dawley males, 430-470g). [^3H]HU-243 (45-55 pM) was incubated with synaptosomal membranes (protein content 3-4 µg) for 90 min at 30°C with either the indicated concentrations of anandamide or the vehicle alone (fatty acid-free bovine serum albumin, final concentration-0.5 mg/ml). Bound and free radioligand were separated by centrifugation (see ref. 8 for full details of the assay). The data were normalized to 100% of specific binding, which was determined with 50 nM unlabeled HU-243. The amount of specific binding was 77-82% of the total radioactivity bound to the membranes. Data points (□, ▲) represent the average of triplicate determinations from two independent experiments.

[3] = tested on: Arachidonic Acid-Induced Paw Edema; test: arachidonic acid-induced paw edema; assay type: in vivo; settings: Mus musculus, po, compared to vehicle treated controls (peanut oil orally), N=5 mice/group, read-out: percent inhibition of paw edema; for inhibition at 0.05 mg/kg: dose 0.050 mg/kg; for inhibition at 0.1 mg/kg: dose 0.100 mg/kg; for inhibition at 0.25 mg/kg: dose 0.250 mg/kg
Protocol: The compounds were tested by a method reported by W. Calhoun et al., Agents and Actions, 21, 306-a309 (1987). Water was substituted for mercury as the displacement medium. PAF (1.0 µg) or arachidonic acid (1.0mg) dissolved in 50 µl of 5% ethanol in saline was injected s.c. into the plantar surface of the right hind paw of female mice (20-25g). The mice were under ether anesthesia during this procedure. The volume of the right foot was measured to the level of the lateral malleous by water displacement before treatment and 15 min after PAF injection or 30 min after arachidonic injection. The change in paw volume was calculated for each mouse.

[4] = tested on: mice; test: standard hot plate test (analgesia); assay type: in vivo; settings: Mus musculus; in mice, intravenous injection in the tail vein; read-out: Analgesia ED=50
Protocol: Analgesia. The novel compounds were tested in the standard hot plate test.
Represenatative results are presented in Table I. The compounds were dissolved in a detergent (Emulphor): ethanol: saline (5:5:90) and administered by intravenous injection in the tail vein with an injection volume of 0.1 ml/10g of body weight.

[5] = tested on: emesia caused by an antieoplastic drug (cisplatin); test: antiemetic activity against cisplatin-caused emesis; assay type: in vivo; settings: Columbidae, sc, in pigeons, administered subcutaneously, read-out: Reduction of vomiting(50%)
Protocol: The compounds also tested in pigeons against emesia caused by an antieoplastic drug (cisplatin) according to the method described in Feigenbaum et al., Eur. J. Pharmacol. 169, 159-165 (1989). Representative results are presented in Table I. The compounds were dissolved as described above for the tests on analgesia, and administered subcutaneously. The injection volume was 1.0 ml/kg body weight.

[6] = tested on: mouse vas deferens; test: electrically-evoked twitch response of the mouse vas deferens
Protocol: R.G. Pertwee, L.A. Stevenson, D.B. Elrick, R. Mechoulam, A.D. Corbett, Brit. J. Pharmacol. 105, 980 (1992). […] The structure of anandamide was established by mass spectrometry (MS) and nuclear magnetic resonance (NMR) spectroscopy. Additional data were obtained from the GC-MS and CID measurements of the trimethylsilyl (TMS) derivative of the material.
Fig. 2. Inhibition of vas deferens twitch response by natural anandamide. Vasa deferentia obtained from MFI mice were mounted in 4 ml siliconized organ baths under an initial tension of 0.5 g. The baths contained Mg++ -Free Krebs solution which was kept at 37 C and bubbled with 95% 02 and 5% CO2 . Tissues were stimulated supramaximally with 0.5 s trains of 3 pulses (train frequency 0.1 Hz: pulse duration 0.5 ms). Isometric contractions were recorded. Natural anandamide was dispersed in Tween 80 and saline (see ref. 12) and added in volumes of 40 µl.

T1 sequence (P20272 whole entry): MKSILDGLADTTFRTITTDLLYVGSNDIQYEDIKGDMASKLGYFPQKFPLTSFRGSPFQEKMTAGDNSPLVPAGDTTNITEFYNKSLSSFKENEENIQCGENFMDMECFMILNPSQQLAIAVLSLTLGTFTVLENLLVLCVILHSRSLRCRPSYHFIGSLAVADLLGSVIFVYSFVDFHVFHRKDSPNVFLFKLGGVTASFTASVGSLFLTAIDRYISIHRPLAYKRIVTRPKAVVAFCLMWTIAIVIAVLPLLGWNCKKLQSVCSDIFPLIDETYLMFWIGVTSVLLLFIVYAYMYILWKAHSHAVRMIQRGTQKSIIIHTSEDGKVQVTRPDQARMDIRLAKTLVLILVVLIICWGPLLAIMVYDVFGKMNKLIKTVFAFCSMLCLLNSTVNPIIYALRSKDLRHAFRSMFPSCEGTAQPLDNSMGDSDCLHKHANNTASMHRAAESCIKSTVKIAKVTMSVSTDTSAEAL

SMILES	inhibition at 0.05 mg/kg [3] [%]	inhibition at 0.1 mg/kg [3] [%]	inhibition at 0.25 mg/kg [3] [%]	ED50 [4] [mg/kg]	ED50 [5] [mg/kg]	further results
CC[C@@H]1C(=O)OC[C@@H]1Cc1cncn1C [pilocarpine]						delays recovery to half time of the original I.O.P. [1]: about 30 hours
CCCCC/C=C\C/C=C\C/C=C\C/C=C\CCCCCC(=O)NCCO [cis-7,10,13,16-docosatetraenoylethanolamide]						Ki ([2]; compounds isolated from the brain and synthesized): 0.0344 ± 0.0032 µM
CC/C=C\C/C=C\C/C=C\C/C=C\C/C=C\C/C=C\CCC(=O)NCCO [4,7,10,13,16,19-docosahexaenylethanolamide]	52.4	66.8	72	6.1	4.8	
CCCCC/C=C\C/C=C\C/C=C\C/C=C\CCCC(=O)NCC(C)(C)O [arachidonoyl-β-dimethylethanolamide]						Ki ([2]; synthetic compounds, prepared and tested): 0.162 ± 0.0341 µM
CCCCC/C=C\C/C=C\C/C=C\C/C=C\CCCC(=O)NCCO [Arachidonylethanolamide, 5,8,11,14-icosatetraenamide, (N,-2-hydroxyethyl)-(all-Z)]	74.2	98	100	4.2	2.5	inhibition at 0.01 mg/kg ([3]; dose 0.010 mg/kg): 56.2%; inhibition at 0.025 mg/kg ([3]; dose 0.025 mg/kg): 58.4%; inhibition of the twitch response ([6]; electrically-evoked, mouse vas deferens): concentration-dependent inhibition; reversal of the inhibition of the twitch response by naloxone ([6]; naloxone 300 nM): not reversed
